Substitutions are numbered along the chain they refer to.
Experiments:
[1] = target: Isocitrate dehydrogenase [NADP], mitochondrial (Homo sapiens, UniProt P48735, R172K); assay: Inhibition of IDH2 R172K mutant (unknown origin) assessed as reduction in NADPH consumption using alpha-ketoglutarate and NADPH as substrate preincubated with enzyme for 15 mins followed by substrate addition by fluorescence based assay
[2] = Metabolic stability in human liver microsomes assessed as parent compound remaining at 100 ug/ml measured after 15 mins in presence of NADPH by LC-MS analysis; format: ADME, Microsome; conditions: at 100 µg/mL, read-out: Stabilty
[3] = Metabolic stability in human liver microsomes assessed as parent compound remaining at 100 ug/ml measured after 45 mins in presence of NADPH by LC-MS analysis; format: ADME, Microsome; conditions: at 100 µg/mL, read-out: Stabilty
TF-1 = assay: Cytotoxicity aganist human TF-1 cells harboring IDH2 mutant; format: functional, cell-based
[4] = target: Isocitrate dehydrogenase [NADP], mitochondrial (Homo sapiens, UniProt P48735, R140Q); assay: Inhibition of IDH2 R140Q mutant (unknown origin) assessed as reduction in NADPH consumption using alpha-ketoglutarate and NADPH as substrate preincubated with enzyme for 15 mins followed by substrate addition by fluorescence based assay
Sequence of Isocitrate dehydrogenase [NADP], mitochondrial (Homo sapiens, UniProt P48735, R140Q) (P48735 40-452 R140Q limits assumed): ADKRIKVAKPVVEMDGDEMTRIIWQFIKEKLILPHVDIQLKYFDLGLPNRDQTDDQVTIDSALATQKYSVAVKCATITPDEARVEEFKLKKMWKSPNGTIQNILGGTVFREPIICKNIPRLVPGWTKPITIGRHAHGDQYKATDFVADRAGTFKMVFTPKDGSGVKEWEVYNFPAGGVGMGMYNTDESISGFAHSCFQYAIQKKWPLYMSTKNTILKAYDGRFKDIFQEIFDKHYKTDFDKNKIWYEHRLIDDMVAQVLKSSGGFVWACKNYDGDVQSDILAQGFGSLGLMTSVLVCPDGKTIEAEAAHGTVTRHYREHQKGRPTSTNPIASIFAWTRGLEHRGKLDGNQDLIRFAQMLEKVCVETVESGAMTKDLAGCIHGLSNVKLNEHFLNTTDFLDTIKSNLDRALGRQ

[5] = target: T1, Isocitrate dehydrogenase [NADP], mitochondrial (Homo sapiens, UniProt P48735); assay: Inhibition of wild type IDH2 (unknown origin) assessed as reduction in NADPH production using sodium(D)-isocitrate and NADP as substrate preincubated with enzyme for 15 mins followed by substrate addition by fluorescence based assay
T1 sequence (P48735 whole entry): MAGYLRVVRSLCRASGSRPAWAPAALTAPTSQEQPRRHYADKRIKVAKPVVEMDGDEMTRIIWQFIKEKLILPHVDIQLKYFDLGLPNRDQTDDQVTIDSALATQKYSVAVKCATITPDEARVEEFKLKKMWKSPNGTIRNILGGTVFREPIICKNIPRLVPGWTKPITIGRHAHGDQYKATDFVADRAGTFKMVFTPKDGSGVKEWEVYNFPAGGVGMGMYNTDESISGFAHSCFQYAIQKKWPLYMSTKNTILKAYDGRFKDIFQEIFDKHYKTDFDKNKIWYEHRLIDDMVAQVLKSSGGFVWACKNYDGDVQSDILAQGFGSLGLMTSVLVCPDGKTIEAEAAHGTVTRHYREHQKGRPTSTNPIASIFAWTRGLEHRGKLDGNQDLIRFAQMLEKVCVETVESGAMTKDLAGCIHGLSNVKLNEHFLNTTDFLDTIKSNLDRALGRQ

[6] = Metabolic stability in human liver microsomes assessed as parent compound remaining at 100 ug/ml measured after 90 mins in presence of NADPH by LC-MS analysis; format: ADME, Microsome; conditions: at 100 µg/mL, read-out: Stabilty
WI-38 = assay: Cytotoxicity aganist human WI-38 cells; format: cell-based
[7] = Cytotoxicity aganist human PBMC cells; format: cell-based
[8] = test system: T2, Isocitrate dehydrogenase [NADP], mitochondrial (Homo sapiens), P48735 [R140Q]; assay: Potency index, ratio of AG-221 IC50 to test compound IC50 for IDH2 R140Q mutant (unknown origin) assessed as reduction in NADPH consumption using alpha-ketoglutarate and NADPH as substrate preincubated with enzyme for 15 mins followed by substrate addition by fluorescence based assay
T2 sequence (whole entry): T1 sequence (P48735 whole entry) with R140Q

[9] = MRT (0 to t) in Sprague-Dawley rat at 1 mg/kg, iv measured upto 24 hrs by LC-MS/MS analysis; format: ADME, organism-based; conditions: in vivo
[10] = Cmax in Sprague-Dawley rat at 10 mg/kg, po measured up to 24 hrs by LC-MS/MS analysis; format: ADME, organism-based; set-up: route oral, dose 10 mg/kg, time <=24; conditions: in vivo
[11] = Half life in Sprague-Dawley rat at 1 mg/kg, iv measured up to 24 hrs by LC-MS/MS analysis; format: ADME, organism-based; conditions: in vivo
[12] = Oral bioavailability Sprague-Dawley rat at 10 mg/kg measured up to 24 hrs by LC-MS/MS analysis; format: ADME, organism-based; conditions: in vivo
[13] = AUC (0 to t) in Sprague-Dawley rat at 1 mg/kg, iv measured up to 24 hrs by LC-MS/MS analysis; format: ADME, organism-based; set-up: route intravenous, dose 1 mg/kg, time <=24; conditions: in vivo
[14] = AUC (0 to infinity) in Sprague-Dawley rat at 1 mg/kg, iv measured up to 24 hrs by LC-MS/MS analysis; format: ADME, organism-based; set-up: route intravenous, dose 1 mg/kg, time <=24; conditions: in vivo
[15] = AUC (0 to infinity) in Sprague-Dawley rat at 10 mg/kg, po measured up to 24 hrs by LC-MS/MS analysis; format: ADME, organism-based; set-up: route oral, dose 10 mg/kg, time <=24; conditions: in vivo
[16] = Tmax in Sprague-Dawley rat at 10 mg/kg, po measured up to 24 hrs by LC-MS/MS analysis; format: ADME, organism-based; conditions: in vivo
[17] = Cmax in Sprague-Dawley rat at 1 mg/kg, iv measured up to 24 hrs by LC-MS/MS analysis; format: ADME, organism-based; set-up: route intravenous, dose 1 mg/kg, time <=24; conditions: in vivo
[18] = MRT (0 to t) in Sprague-Dawley rat at 10 mg/kg, po measured upto 24 hrs by LC-MS/MS analysis; format: ADME, organism-based; conditions: in vivo
[19] = AUC (0 to t) in Sprague-Dawley rat at 10 mg/kg, po measured up to 24 hrs by LC-MS/MS analysis; format: ADME, organism-based; set-up: route oral, dose 10 mg/kg, time <=24; conditions: in vivo
[20] = Half life in Sprague-Dawley rat at 10 mg/kg, po measured up to 24 hrs by LC-MS/MS analysis; format: ADME, organism-based; conditions: in vivo

Sequence of Isocitrate dehydrogenase [NADP], mitochondrial (Homo sapiens, UniProt P48735, R172K) (P48735 40-452 R172K limits assumed): as the sequence (P48735 40-452 R140Q limits assumed) above, with Q101R, R133K counted along it

SMILES | IC50 [1] [nM] | remaining at 0.25 h, 100 ug/ml [2] [%] | remaining at 0.75 h, 100 ug/ml [3] [%] | IC50 (TF-1) [nM] | IC50 [4] [nM] | IC50 [5] [nM] | remaining at 1.5 h, 100 ug/ml [6] [%] | further results
FC(F)(F)c1cc2cc(c1)Nc1nc(nc(-c3cccc(C(F)(F)F)n3)n1)NCCCCCCCC2 | 131 | > 99 | 75 | > 10000 | 37.2 | > 20000 | 72 | –
FC(F)(F)c1cc2cc(c1)Nc1nc(nc(-c3cccc(C(F)(F)F)n3)n1)NCCCCCC2 [listing 1 of 2 here] | 219 | 95 | 94 | > 10000 | 6.1 | > 20000 | 85 | –
FC(F)(F)c1cc2cc(c1)Nc1nc(nc(-c3cccc(C(F)(F)F)n3)n1)NCCOC/C=C\C2 | 210 | – | – | – | 39.9 | > 20000 | – | IC50 (WI-38): 10000 nM; IC50 [7]: 10000 nM
FC(F)(F)c1cc2cc(c1)OC/C=C\CCNc1nc(nc(-c3cccc(C(F)(F)F)n3)n1)N2 | 1570 | 89 | 66 | – | 18.4 | > 20000 | 64 | –
FC(F)(F)c1cc2cc(c1)Nc1nc(nc(-c3cccc(C(F)(F)F)n3)n1)NCCCCCC2 [listing 2 of 2 here] | – | – | – | – | – | – | – | Ratio IC50 [8]: 6
FC(F)(F)c1cc2cc(c1)Nc1nc(nc(-c3cccc(C(F)(F)F)n3)n1)NCCC/C=C/C2 | 17.4 | > 99 | 91 | – | 13.8 | 14100 | 90 | Ratio IC50 [8]: 3
FC(F)(F)c1cc2cc(c1)OCCCCCCNc1nc(nc(-c3cccc(C(F)(F)F)n3)n1)N2 | 45.5 | 93 | 97 | – | 133 | > 20000 | 85 | –
CC1(C)CNc2nc(nc(-c3cccc(C(F)(F)F)n3)n2)Nc2cc(cc(C(F)(F)F)c2)CCCCO1 | 9.6 | – | – | – | 38.5 | > 20000 | – | IC50 (WI-38): 10000 nM; IC50 [7]: 10000 nM
FC(F)(F)c1cc2cc(c1)Nc1nc(nc(-c3cccc(C(F)(F)F)n3)n1)NCC/C=C/C2 | > 10000 | – | – | > 10000 | 683 | > 20000 | – | –
FC(F)(F)c1cc2cc(c1)Nc1nc(nc(-c3cccc(C(F)(F)F)n3)n1)NCCOCCCC2 | 517 | – | – | – | 64.4 | > 20000 | – | IC50 (WI-38): 10000 nM; IC50 [7]: 10000 nM
C=CCOC(C)(C)CNc1nc(Nc2ccccc2)nc(-c2cccc(C(F)(F)F)n2)n1 | 167 | – | – | > 10000 | 46 | > 20000 | – | –
CS(=O)(=O)O.FC(F)(F)c1cc2cc(c1)Nc1nc(nc(-c3cccc(C(F)(F)F)n3)n1)NCCCCCC2 | 78.5 | – | – | – | 60.9 | – | – | MRT(t) [9]: 2.4 h; Cmax [10]: 237 ng/mL; t1/2 [11]: 0.22 h; bioavailability [12]: 19.8%; AUC(0-t) at 24 h [13]: 1370 ng·h/mL; AUC [14]: 1372.5 ng·h/mL; AUC(0-inf) [15]: 2750 ng·h/mL; Tmax [16]: 1.33 h; Cmax [17]: 1255.13 ng/mL; MRT last at 24 h [18]: 6.03 h; AUC(0-t) at 24 h [19]: 2700 ng·h/mL; half-life [20]: 6.63 h
CC(C)(O)CNc1nc(Nc2cccc(C(F)(F)F)c2)nc(-c2cccc(C(F)(F)F)n2)n1 | 119 | 86 | 81 | > 10000 | 26 | > 20000 | 81 | –

Reference: ChEMBL document CHEMBL4706511, “Structure-based design, synthesis and bioactivity evaluation of macrocyclic inhibitors of mutant isocitrate dehydrogenase 2 (IDH2) displaying activity in acute myeloid leukemia cells” (Eur J Med Chem, 2020)
